Data: ChEMBL document CHEMBL1136174, “Synthesis and antimycobacterial activity of capuramycin analogues. Part 1: substitution of the azepan-2-one moiety of capuramycin” (Bioorg Med Chem Lett, 2003)
Values after ≈ are worked out from the molar mass of the structure shown.

Legend:
[1] = tested on: Mycolicibacterium smegmatis; test: Antimycobacterial activity against Mycobacterium smegmatis (SANK 75075); type: functional
[2] = molecular target: T1, Phospho-N-acetylmuramoyl-pentapeptide-transferase (Escherichia coli K-12, UniProt P0A6W3); test: Inhibitory activity against translocase I
T1 sequence (P0A6W3 whole entry): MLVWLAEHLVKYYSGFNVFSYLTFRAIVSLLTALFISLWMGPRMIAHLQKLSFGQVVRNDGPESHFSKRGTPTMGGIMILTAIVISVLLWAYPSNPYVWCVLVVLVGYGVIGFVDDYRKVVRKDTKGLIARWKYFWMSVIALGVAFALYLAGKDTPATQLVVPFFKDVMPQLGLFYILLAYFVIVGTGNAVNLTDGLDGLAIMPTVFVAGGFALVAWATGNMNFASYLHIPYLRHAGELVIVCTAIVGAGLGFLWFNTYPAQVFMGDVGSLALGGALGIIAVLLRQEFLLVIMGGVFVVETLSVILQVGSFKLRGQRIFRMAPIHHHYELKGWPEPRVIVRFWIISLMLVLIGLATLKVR

Row | SMILES | MIC [1] | IC50 [2]
1 | CO[C@H]1[C@@H](O)[C@H](n2ccc(=O)[nH]c2=O)O[C@@H]1[C@@H](O[C@H]1OC(C(=O)NCc2ccco2)=C[C@H](O)[C@@H]1O)C(N)=O | 100 µg/mL (≈ 186 µM) | 520 nM
2 | CO[C@H]1[C@@H](O)[C@H](n2ccc(=O)[nH]c2=O)O[C@@H]1[C@@H](O[C@H]1OC(C(=O)Nc2ccc(C(F)(F)F)cc2)=C[C@H](O)[C@@H]1O)C(N)=O | 12.5 µg/mL (≈ 20.7 µM) | 
3 | CO[C@H]1[C@@H](O)[C@H](n2ccc(=O)[nH]c2=O)O[C@@H]1[C@@H](O[C@H]1OC(C(=O)NCc2ccc(C)cc2)=C[C@H](O)[C@@H]1O)C(N)=O | 50 µg/mL (≈ 88.9 µM) | 2130 nM
4 | CO[C@H]1[C@@H](O)[C@H](n2ccc(=O)[nH]c2=O)O[C@@H]1[C@@H](O[C@H]1OC(C(=O)NCCc2cccs2)=C[C@H](O)[C@@H]1O)C(N)=O | 25 µg/mL (≈ 44 µM) | 22.9 nM
5 | CO[C@H]1[C@@H](O)[C@H](n2ccc(=O)[nH]c2=O)O[C@@H]1[C@@H](O[C@H]1OC(C(=O)N2CCCC2)=C[C@H](O)[C@@H]1O)C(N)=O | > 100 µg/mL | 820 nM
6 | CO[C@H]1[C@@H](O)[C@H](n2ccc(=O)[nH]c2=O)O[C@@H]1[C@@H](O[C@H]1OC(C(=O)NCCc2ccc(F)cc2)=C[C@H](O)[C@@H]1O)C(N)=O | 12.5 µg/mL (≈ 21.5 µM) | 37.9 nM
7 | COc1ccccc1CCNC(=O)C1=C[C@H](O)[C@H](O)[C@@H](O[C@@H](C(N)=O)[C@H]2O[C@@H](n3ccc(=O)[nH]c3=O)[C@H](O)[C@@H]2OC)O1 | 50 µg/mL (≈ 84.4 µM) | 54 nM
8 | CO[C@H]1[C@@H](O)[C@H](n2ccc(=O)[nH]c2=O)O[C@@H]1[C@@H](O[C@H]1OC(C(=O)NCc2ccccc2C)=C[C@H](O)[C@@H]1O)C(N)=O | 12.5 µg/mL (≈ 22.2 µM) | 889 nM
9 | CO[C@H]1[C@@H](O)[C@H](n2ccc(=O)[nH]c2=O)O[C@@H]1[C@@H](O[C@H]1OC(C(=O)Nc2cccc(F)c2F)=C[C@H](O)[C@@H]1O)C(N)=O | 12.5 µg/mL (≈ 21.9 µM) | 22.8 nM
10 | CO[C@H]1[C@@H](O)[C@H](n2ccc(=O)[nH]c2=O)O[C@@H]1[C@@H](O[C@H]1OC(C(=O)N(C)c2ccccc2)=C[C@H](O)[C@@H]1O)C(N)=O | > 100 µg/mL | > 4560 nM
11 | CO[C@H]1[C@@H](O)[C@H](n2ccc(=O)[nH]c2=O)O[C@@H]1[C@@H](O[C@H]1OC(C(=O)NCc2cccs2)=C[C@H](O)[C@@H]1O)C(N)=O | 50 µg/mL (≈ 90.2 µM) | 139 nM
12 | CO[C@H]1[C@@H](O)[C@H](n2ccc(=O)[nH]c2=O)O[C@@H]1[C@@H](O[C@H]1OC(C(=O)NCCCCO)=C[C@H](O)[C@@H]1O)C(N)=O | > 100 µg/mL | 320 nM
13 | CO[C@H]1[C@@H](O)[C@H](n2ccc(=O)[nH]c2=O)O[C@@H]1[C@@H](O[C@H]1OC(C(=O)NCCc2ccc(C)cc2)=C[C@H](O)[C@@H]1O)C(N)=O | 50 µg/mL (≈ 86.7 µM) | 59 nM
14 | CO[C@H]1[C@@H](O)[C@H](n2ccc(=O)[nH]c2=O)O[C@@H]1[C@@H](O[C@H]1OC(C(=O)NCCc2ccc(O)cc2)=C[C@H](O)[C@@H]1O)C(N)=O | 50 µg/mL (≈ 86.4 µM) | 104 nM
15 | CO[C@H]1[C@@H](O)[C@H](n2ccc(=O)[nH]c2=O)O[C@@H]1[C@@H](O[C@H]1OC(C(=O)NCc2ccccc2)=C[C@H](O)[C@@H]1O)C(N)=O | 50 µg/mL (≈ 91.2 µM) | 219 nM
16 | CCCCCCCCCCCCNC(=O)C1=C[C@H](O)[C@H](O)[C@@H](O[C@@H](C(N)=O)[C@H]2O[C@@H](n3ccc(=O)[nH]c3=O)[C@H](O)[C@@H]2OC)O1 | 25 µg/mL (≈ 39.9 µM) | 622 nM
17 | CCCCCCCCCCNC(=O)C1=C[C@H](O)[C@H](O)[C@@H](O[C@@H](C(N)=O)[C@H]2O[C@@H](n3ccc(=O)[nH]c3=O)[C@H](O)[C@@H]2OC)O1 | 25 µg/mL (≈ 41.8 µM) | 434 nM

Row | SMILES | MIC [1] | IC50 [2]
18 | COc1cc(CNC(=O)C2=C[C@H](O)[C@H](O)[C@@H](O[C@@H](C(N)=O)[C@H]3O[C@@H](n4ccc(=O)[nH]c4=O)[C@H](O)[C@@H]3OC)O2)cc(OC)c1OC | > 100 µg/mL | 658 nM
19 | CO[C@H]1[C@@H](O)[C@H](n2ccc(=O)[nH]c2=O)O[C@@H]1[C@@H](O[C@H]1OC(C(=O)Nc2ccc([N+](=O)[O-])cc2)=C[C@H](O)[C@@H]1O)C(N)=O | 25 µg/mL (≈ 43.1 µM) | 69 nM
20 | CO[C@H]1[C@@H](O)[C@H](n2ccc(=O)[nH]c2=O)O[C@@H]1[C@@H](O[C@H]1OC(C(=O)Nc2nncs2)=C[C@H](O)[C@@H]1O)C(N)=O | > 100 µg/mL | 194 nM
21 | CO[C@H]1[C@@H](O)[C@H](n2ccc(=O)[nH]c2=O)O[C@@H]1[C@@H](O[C@H]1OC(C(=O)Nc2nc(C(C)(C)C)cs2)=C[C@H](O)[C@@H]1O)C(N)=O | 100 µg/mL (≈ 167 µM) | 25.1 nM
22 | CO[C@H]1[C@@H](O)[C@H](n2ccc(=O)[nH]c2=O)O[C@@H]1[C@@H](O[C@H]1OC(C(=O)NCCc2ccc(Cl)cc2)=C[C@H](O)[C@@H]1O)C(N)=O | 25 µg/mL (≈ 41.9 µM) | 33.5 nM
23 | CO[C@H]1[C@@H](O)[C@H](n2ccc(=O)[nH]c2=O)O[C@@H]1[C@@H](O[C@H]1OC(C(=O)NCC(c2ccccc2)c2ccccc2)=C[C@H](O)[C@@H]1O)C(N)=O | > 100 µg/mL | 204 nM
24 | CO[C@H]1[C@@H](O)[C@H](n2ccc(=O)[nH]c2=O)O[C@@H]1[C@@H](O[C@H]1OC(C(=O)NCCc2cccc(Cl)c2)=C[C@H](O)[C@@H]1O)C(N)=O | 12.5 µg/mL (≈ 20.9 µM) | 33.5 nM
25 | COc1ccc(CCNC(=O)C2=C[C@H](O)[C@H](O)[C@@H](O[C@@H](C(N)=O)[C@H]3O[C@@H](n4ccc(=O)[nH]c4=O)[C@H](O)[C@@H]3OC)O2)cc1OC | 50 µg/mL (≈ 80.3 µM) | 40.2 nM
26 | CO[C@H]1[C@@H](O)[C@H](n2ccc(=O)[nH]c2=O)O[C@@H]1[C@@H](O[C@H]1OC(C(=O)Nc2nccs2)=C[C@H](O)[C@@H]1O)C(N)=O | 25 µg/mL (≈ 46.2 µM) | 33.2 nM
27 | CO[C@H]1[C@@H](O)[C@H](n2ccc(=O)[nH]c2=O)O[C@@H]1[C@@H](O[C@H]1OC(C(=O)NC2CCCCCC2)=C[C@H](O)[C@@H]1O)C(N)=O | 25 µg/mL (≈ 45.1 µM) | 48.7 nM
28 | CO[C@H]1[C@@H](O)[C@H](n2ccc(=O)[nH]c2=O)O[C@@H]1[C@@H](O[C@H]1OC(C(=O)NC2CCCCC2)=C[C@H](O)[C@@H]1O)C(N)=O | 12.5 µg/mL (≈ 23.1 µM) | 55.5 nM
29 | COc1ccccc1NC(=O)C1=C[C@H](O)[C@H](O)[C@@H](O[C@@H](C(N)=O)[C@H]2O[C@@H](n3ccc(=O)[nH]c3=O)[C@H](O)[C@@H]2OC)O1 | 25 µg/mL (≈ 44.3 µM) | 54.9 nM
30 | CO[C@H]1[C@@H](O)[C@H](n2ccc(=O)[nH]c2=O)O[C@@H]1[C@@H](O[C@H]1OC(C(=O)Nc2ccc(C)cc2)=C[C@H](O)[C@@H]1O)C(N)=O | 12.5 µg/mL (≈ 22.8 µM) | 23.7 nM
31 | CCCCCCCCCCCCCCNC(=O)C1=C[C@H](O)[C@H](O)[C@@H](O[C@@H](C(N)=O)[C@H]2O[C@@H](n3ccc(=O)[nH]c3=O)[C@H](O)[C@@H]2OC)O1 | > 50 µg/mL | > 3820 nM
32 | CO[C@H]1[C@@H](O)[C@H](n2ccc(=O)[nH]c2=O)O[C@@H]1[C@@H](O[C@H]1OC(C(=O)NCCc2ccccc2Cl)=C[C@H](O)[C@@H]1O)C(N)=O | 25 µg/mL (≈ 41.9 µM) | 46.9 nM
33 | CCCc1ccc(NC(=O)C2=C[C@H](O)[C@H](O)[C@@H](O[C@@H](C(N)=O)[C@H]3O[C@@H](n4ccc(=O)[nH]c4=O)[C@H](O)[C@@H]3OC)O2)cc1 | 12.5 µg/mL (≈ 21.7 µM) | 53.8 nM
